From patent publication EP0364941A1, “Branched-chain alkyl esters of 2-(4-(2-piperidino ethoxy)benzoyl)benzoic acid, processes for their preparation and their use as spasmolytic agents” (HOECHST AKTIENGESELLSCHAFT, priority 1988, dated 1990)
Where two headings read alike, the source gives them in different places.

Tests used:
small intestine [1] = assay: Motility of the small intestine in the conscious dog; type: in vivo; settings: for Area under the contraction curve, Postdrug 10 min: 10 min postdrug; for Area under the contraction curve, Postdrug 10 min / Area under the contraction curve, Postdrug 20 min / Area under the contraction curve, Postdrug 30 min / Area under the contraction curve, Postdrug 40 min / Area under the contraction curve, Postdrug 50 min / Area under the contraction curve, Postdrug 60 min / Area under the contraction curve, Predrug -20 - 0: phase I and II; for Area under the contraction curve, Postdrug 20 min: 20 min postdrug; for Area under the contraction curve, Postdrug 30 min: 30 min postdrug; for Area under the contraction curve, Postdrug 40 min: 40 min postdrug; for Area under the contraction curve, Postdrug 50 min: 50 min postdrug; for Area under the contraction curve, Postdrug 60 min: 60 min postdrug; for Inhibition Maximal / Inhibition Mean / ED50: phase I+II activity; for Area under the contraction curve, Predrug -20 - 0: predrug baseline -20 - 0 min; for Duration of action: when postdrug values reached 90 % or more of predrug values; for ED50: Canis lupus familiaris, iv
Source text: Male dogs (THG Tierhandelsgesellschaft Rodenbach, Hoe:BEAK (Beagle)) weighing 15 - 20 kg were used in all experiments. At least 4 weeks prior to the experiment the dogs had been equipped with miniaturized strain gage force transducers (T1-T3) (2x4 mm), sutured onto the gut at the locations mentioned below. The cables of the transducers were embedded into a cannula which carried the plug for external electric connection. This stainless steel cannula was implanted into the abdominal wall, close below the costal arch. Each transducer was connected to a measuring bridge. The signals were on line stored using a HP 9835 A computer, allowing later analysis of the data. • T1 : Proximal jejunum • T2 : Distal jejunum • T3 : Ileum
(§1) 18 hours prior to the experiment food was withdrawn from the animals, water ad libidum. All experiments started between 08:00 and 09:00 am.
The following motility parameters were determined: The integral under the […] at 10 min intervals (mNx10min) as an index of phase I + II activity. The duration of drug action (min.) The duration of the interdigestive migrating complex (IMC) (min) as a measure of phase III activity.
Test Compound II was given at doses of 0.2 and 0.5 mg/kg i.v. or 5 mg/kg i.g., dissolved in saline, in a volume of 1 ml/kg (i.v.) or 2 ml/kg (i.g.), n = 3 - 6. Control n = 26.
Buscopan was given at doses of 0.3 and 1 mg/kg i.v., dissolved in saline, in a volume of 1 ml/kg, n = 4 - 6. Pitofenone was given at doses of 1 mg/kg i.v., dissolved in saline, in a volume of 1 ml/kg, n = 8.
ID₅₀-values were determined graphically.

large Bowel = assay: Motility of the large bowel (colonic motor complex) in conscious dogs; type: in vivo
Source text: Male dogs (THG Tierhandelsgesellschaft Rodenbach, Hoe:BEAK (Beagle)) weighing 15 - 20 kg were used in all experiments.
At least 4 weeks prior the experiment the dogs had been equipped with miniaturised strain gage force transducers (T1-T2) (2x4mm), sutured onto the gut at the locations mentioned below. The cables of the transducers were embedded into a cannula which carried the plug for external electric connection. This stainless steel cannula was implanted into the abdominal wall, close below the costal arch. Each transducer was connected to a measuring bridge. The signals were on line stored using a HP 9835 A computer, allowing later analysis of the data. • T1 : Colon ascendens 10 cm aborafrom the ileoceval valve (ICV) • T2 : Colon transversum 25 cm aborad from the ICV
as §1
The following parameters were determined: The duration of the cycle (min) The duration of the colonic motor complex (CMC) (min) The maximal height of the concentrations (AU: arbitrary units)
Data from the two recording sites (T1-T2) were pooled. […]
For detection of significant differences (p < 0.05) the unpaired t-test was used. Only significant differences were indicated by *.

small intestine [2] = assay: Gastrointestinal propulsion (charcoal transport) in mice; type: in vivo
Method: Ref.: J.M.A. Zwagemakers and V. Claassen, Arzneim-Forsch/-Drug Res. 30 (II) Nr.9, p.1517 (1980).
The test compounds I and II were given orally by gavage in a range of 10 to 100 mg/kg doses 30 min before charcoal suspension (0.2 ml/animal, 10% charcoal in 5% gum acacia) in 18 hrs fasted mice (male or female, weight range 18 to 25 g). 30 min after administration of charcoal animals were killed and the extent of charcoal propulsion in the small intestine was measured. The inhibitory activity of test compound on charcoal transport was assessed as percent inhibition compared to length of intestine. For control group 10 ml/kg of saline was given.

Porcine liver esterase = assay: Enzymatic hydrolysis rates by porcine liver esterase; type: in vitro ADME; settings: test compound 1 mM, pH 8.0, 37°C
Method: Porcine liver esterase (0.5 U = 2 µg) was preincubated in 40 mM Tris-HCl buffer, pH 8.0, at 37°C for 5 min. The reaction was initiated with the addition of the test compound (final concentration, 1 mM) in the final volume of 250 µl. Enzyme reaction was terminated at different time intervals by the addition of 60 µl of 1 M acetic acid. The solution was made alkaline (pH 10.5) by adding 0.4 M NaOH and the alkaline solution was rapidly extracted (three times) with 2.5 ml of chloroform. An aliquot of the aqueous supernatant was diluted with double distilled water and the absorbance was measured at 290 nm. Amount of test compound III (molar extinction = 14,400) formed was calculated.

CC(C)OC(=O)c1ccccc1C(=O)c1ccc(OCCN2CCCCC2)cc1.Cl [Test Compound II, Isopropyl-2-[4-(2-piperidino-ethoxy)-benzoyl]-benzoate hydrochloride] was tested, and the “Area under the contraction curve, Postdrug 10 min” value (small intestine [1]; 0.2 mg/kg i.v.) was 1.54 mN x 10 min, the “Area under the contraction curve, Postdrug 20 min” value (small intestine [1]; 0.2 mg/kg i.v.) was 1.42 mN x 10 min and the “Area under the contraction curve, Postdrug 30 min” value (small intestine [1]; 0.2 mg/kg i.v.) was 1.88 mN x 10 min. The “Area under the contraction curve, Postdrug 40 min” value (small intestine [1]; 0.2 mg/kg i.v.) was 1.77 mN x 10 min, the “Area under the contraction curve, Postdrug 50 min” value (small intestine [1]; 0.2 mg/kg i.v.) was 1.78 mN x 10 min and the “Area under the contraction curve, Postdrug 60 min” value (small intestine [1]; 0.2 mg/kg i.v.) was 2.19 mN x 10 min. For the same molecule, the “Inhibition Maximal” value (small intestine [1]; 0.2 mg/kg i.v.) was 34%, the “Inhibition Mean” value (small intestine [1]; 0.2 mg/kg i.v.) was 22 ± 4% and the “Area under the contraction curve, Predrug -20 - 0” value (small intestine [1]; 0.2 mg/kg i.v.) was 2.15 mN x 10 min. For the same molecule, the Duration of action (small intestine [1]; 0.2 mg/kg i.v.) was 50 min, the “duration of inhibitory effect” value (small intestine [1]; 0.5 mg/kg i.v., conscious dog) was “approximately one” and the “Area under the contraction curve, Postdrug 10 min” value (small intestine [1]; 0.5 mg/kg i.v.) was 0.54 mN x 10 min. For the same molecule, the “Area under the contraction curve, Postdrug 20 min” value (small intestine [1]; 0.5 mg/kg i.v.) was 0.50 mN x 10 min, the “Area under the contraction curve, Postdrug 30 min” value (small intestine [1]; 0.5 mg/kg i.v.) was 0.99 mN x 10 min and the “Area under the contraction curve, Postdrug 40 min” value (small intestine [1]; 0.5 mg/kg i.v.) was 1.17 mN x 10 min. The “Area under the contraction curve, Postdrug 50 min” value (small intestine [1]; 0.5 mg/kg i.v.) was 1.61 mN x 10 min, the “Area under the contraction curve, Postdrug 60 min” value (small intestine [1]; 0.5 mg/kg i.v.) was 2.46 mN x 10 min and the “Inhibition Maximal” value (small intestine [1]; 0.5 mg/kg i.v.) was 81%. The “Inhibition Mean” value (small intestine [1]; 0.5 mg/kg i.v.) was 54 ± 11%, the “Area under the contraction curve, Predrug -20 - 0” value (small intestine [1]; 0.5 mg/kg i.v.) was 2.62 mN x 10 min and the Duration of action (small intestine [1]; 0.5 mg/kg i.v.) was 60 min. For the same molecule, the Duration of cycles (small intestine [1]; 5 mg/kg intragastrical, Phase III activity) was 298 ± 18 min, the “inhibition of phase III activity” value (small intestine [1]; 5 mg/kg intragastrically, conscious dog) was “pronounced inhibition” and the ED50 (small intestine [1]; conscious dog, read-out: intravenous IC₅₀-values determined from maximal inhibition) was 0.22 mg/kg. The ED50 (small intestine [1]; determined graphically, read-out: ID₅₀) was 0.26 mg/kg, the “effect on colonic motility” value (large Bowel; 1 mg/kg i.g.) was “uneffective” and the “Duration CMC” value (large Bowel; 1 mg/kg intragastrically) was 6 ± 2 min. The “Duration Cycle” value (large Bowel; 1 mg/kg intragastrically) was 28 ± 11 min, the “Max.heigth of CMC” value (large Bowel; 1 mg/kg intragastrically) was 50±25 AU and the “Total number of spikes” value (large Bowel; 1 mg/kg intragastrically) was 5.6±1.7 n/CMC. For the same molecule, the “Duration CMC” value (large Bowel; 3 mg/kg intragastrically) was 11 ± 3 min, the “Duration Cycle” value (large Bowel; 3 mg/kg intragastrically) was 136 ± 42 min and the “Max.heigth of CMC” value (large Bowel; 3 mg/kg intragastrically) was 40±23 AU. The “Total number of spikes” value (large Bowel; 3 mg/kg intragastrically) was 5.5±1.0 n/CMC, the “duration of complete inhibition of colonic motility (CMC)” value (large Bowel; 4 mg/kg i.g.) was “about 2 hours” and the “Percent Inhibition” value (small intestine [2]; 10 mg/kg p.o.) was 38.0 ± 4.0%. For the same molecule, the “Percent Inhibition” value (small intestine [2]; 30 mg/kg p.o.) was 41.0 ± 3.0%, the “Percent Inhibition” value (small intestine [2]; 60 mg/kg p.o.) was 46.0 ± 5.0% and the “µmol test compound III formed per mg protein per ml” value (Porcine liver esterase; Time 0.0 hours) was 0.00 µmol per mg protein per ml. The “µmol test compound III formed per mg protein per ml” value (Porcine liver esterase; Time 0.5 hours) was 0.05 µmol per mg protein per ml, the “µmol test compound III formed per mg protein per ml” value (Porcine liver esterase; Time 2.0 hours) was 0.10 µmol per mg protein per ml and the “µmol test compound III formed per mg protein per ml” value (Porcine liver esterase; Time 3.5 hours) was 0.10 µmol per mg protein per ml.
